# Legend:
# [1] = test system: human lung adenocarcinoma epithelial cell line A549; experiment: MTT assay, inhibition of tumor cell growth (A549); type: cell-based; conditions: 72 hours incubation, read-out: IC50 on the tumor cells A549
# Method: (§1) human hepatocellular carcinoma cell line HepG-2, human lung adenocarcinoma epithelial cell line A549
# (§2) Tumor cells were seeded in RPM11640 medium containing 10% calf serum, incubated at 37° C., 5% CO2 in CO2 incubator, and passaged every 2-3 days. Cells at logarithmic growth phase were used for this experiment.
# (§3) The cells at logarithmic growth phase were formulated into suspension. The cell viability by trypan blue staining was more than 98%. The cell suspension was divided into several groups: 1 as blank control group (cell suspension plus solvent DMSO); and 2 as experimental groups (cell suspension plus compounds to be tested).
# (§4) The drugs were formulated into a stock solution in DMSO, and the concentration of the stock solution was 20 mmol (used within 4 hours). In the experiment, the work solution of the drugs was diluted with RPMI1640 medium containing 10% calf serum under aseptic condition, to a final concentration of […]. The drug concentrations were increased by 2 times (1.25-20 μM).
# (§5) The cells in logarithmic growth phase were selected, centrifuged, counted, and formulated into a cell suspension (2.5×10^4/ml) with RPMI1640 medium containing 10% calf serum. The cell suspension were inoculated into 96-well plates at a density of 5000 cells/200 μl per well, incubated for 24 hours at 37° C., 5% CO2. According to the above concentration of the drug, the cells were inoculated to 6 groups (including one control group), with 8 wells per group. After incubating for 72 hours, the viability of cells was measured by MTT assay. The absorbance value (A) was measured with detection wavelength at 540 nm, reference wavelength at 630 nm. The inhibitory rate (I) was calculated by the following equation, where T was the absorbance value of the experimental groups, and C was the absorbance value of the blank control group: I=(1−T/C)×100%
# (§6) Equation of regression line was drawn from concentration-inhibitory rate curve, from which the IC50 of tested sample was calculated.
# [2] = test system: human hepatocellular carcinoma cell line HepG-2; experiment: MTT assay, inhibition of tumor cell growth (HepG2); type: cell-based; conditions: 72 hours incubation, read-out: IC50 on the tumor cells HepG2
# Method: as §1, §2, §3, §4, §5, §6
Structure (SMILES),IC50 [1] [µM],IC50 [2] [µM]
O=C1Nc2ccccc2C1=C1Oc2ccccc2C1=O [Compound 1],40 ± 1.4,> 100
O=C1Nc2c(F)cccc2C1=C1Oc2ccccc2C1=O [Compound 2],> 100,
CCN1C(=O)C(=C2Oc3ccccc3C2=O)c2ccccc21 [Compound 3],21.9 ± 0.9,26.4 ± 1.1
CCN1C(=O)C(=C2Oc3ccccc3C2=O)c2cccc(F)c21 [Compound 4],9.5 ± 2.1,31.5 ± 2.9
CCN1C(=O)C(=C2Oc3ccccc3C2=O)c2cc(Cl)ccc21 [Compound 5],11.5 ± 1,87 ± 2.1
CCN1C(=O)C(=C2Oc3ccccc3C2=O)c2ccc(Cl)cc21 [Compound 6],11.9 ± 1.4,60 ± 1.7
CCN1C(=O)C(=C2Oc3ccccc3C2=O)c2cc(C)ccc21 [Compound 7],8 ± 1.2,19 ± 1.6
CC(C)N1C(=O)C(=C2Oc3ccccc3C2=O)c2ccccc21 [Compound 8],10 ± 1.4,32.2 ± 2.4
CC(C)N1C(=O)C(=C2Oc3ccccc3C2=O)c2cc(F)ccc21 [Compound 9],18.5 ± 1.8,25 ± 1
CC(C)N1C(=O)C(=C2Oc3ccccc3C2=O)c2cccc(F)c21 [Compound 10],8.1 ± 0.6,28.5 ± 1.3
CC(C)N1C(=O)C(=C2Oc3ccccc3C2=O)c2cc(Cl)ccc21 [Compound 11],8.5 ± 1.6,45 ± 1.9
CC(C)N1C(=O)C(=C2Oc3ccccc3C2=O)c2ccc(Cl)cc21 [Compound 12],14 ± 1.7,26 ± 2.7
Cc1ccc2c(c1)C(=C1Oc3ccccc3C1=O)C(=O)N2C(C)C [Compound 13],11 ± 1.2,42 ± 1.8
"O=C1C(=C2C(=O)N(Cc3ccccc3)c3ccccc32)Oc2ccccc21 [Compound 14, N1-benzyl-1′-oxo-indirubin]",7 ± 1.6,24 ± 1.5
O=C1C(=C2C(=O)N(Cc3ccccc3)c3ccc(F)cc32)Oc2ccccc21 [Compound 15],7.4 ± 1.7,34 ± 0.9
O=C1C(=C2C(=O)N(Cc3ccccc3)c3ccc(Cl)cc32)Oc2ccccc21 [Compound 16],16 ± 2,61 ± 2.9
Cc1ccc2c(c1)C(=C1Oc3ccccc3C1=O)C(=O)N2Cc1ccccc1 [Compound 17],8 ± 2.3,25 ± 2.7
CCN1C(=O)C(=C2Oc3ccccc3C2=O)c2cc(F)ccc21 [Compound 18],7.05 ± 1.1,17 ± 1.9
CCN1C(=O)C(=C2Oc3ccc(Cl)cc3C2=O)c2ccccc21 [Compound 19],16 ± 1.5,8 ± 1.5
CCN1C(=O)C(=C2Oc3ccc(Cl)cc3C2=O)c2cccc(F)c21 [Compound 20],1.8 ± 1,12 ± 1.4
CCN1C(=O)C(=C2Oc3ccc(Cl)cc3C2=O)c2cc(Cl)ccc21 [Compound 21],4 ± 2.4,12 ± 1.9
CCN1C(=O)C(=C2Oc3ccc(Cl)cc3C2=O)c2ccc(Cl)cc21 [Compound 22],2.7 ± 1.2,7.1 ± 1.1

Structure (SMILES),IC50 [1] [µM],IC50 [2] [µM]
CC(C)N1C(=O)C(=C2Oc3ccc(Cl)cc3C2=O)c2cc(Cl)ccc21 [Compound 23],3.1 ± 0.8,6.9 ± 0.8
CC(C)N1C(=O)C(=C2Oc3ccc(Cl)cc3C2=O)c2ccc(Cl)cc21 [Compound 24],3.8 ± 1.5,12.1 ± 0.9
O=C1Nc2ccccc2C1=C1Oc2ccccc2C1=NO [Compound 25],3.7 ± 0.9,5 ± 0.9
O=C1Nc2c(F)cccc2C1=C1Oc2ccccc2C1=NO [Compound 26],5.4 ± 0.6,29 ± 1.8
CCN1C(=O)C(=C2Oc3ccccc3C2=NO)c2ccccc21 [Compound 27],7.1 ± 0.7,19 ± 1.1
CCN1C(=O)C(=C2Oc3ccccc3C2=NO)c2cccc(F)c21 [Compound 28],7 ± 1.3,30 ± 1.5
CCN1C(=O)C(=C2Oc3ccccc3C2=NO)c2cc(Cl)ccc21 [Compound 29],3.6 ± 0.2,7.7 ± 1.2
CCN1C(=O)C(=C2Oc3ccccc3C2=NO)c2ccc(Cl)cc21 [Compound 30],3.8 ± 0.5,3 ± 0.5
CCN1C(=O)C(=C2Oc3ccccc3C2=NO)c2cc(C)ccc21 [Compound 31],1.2 ± 0.8,2.8 ± 0.4
CC(C)N1C(=O)C(=C2Oc3ccccc3C2=NO)c2ccccc21 [Compound 32],10.5 ± 1.3,12.8 ± 1.6
O=C1C(=C2Oc3ccccc3C2=NO)c2ccccc2N1C1OC(CO)C(O)C1O (stereo not drawn) [Compound 33],14.8 ± 1.2,21 ± 0.9
CC(C)N1C(=O)C(=C2Oc3ccccc3C2=NO)c2cccc(F)c21 [Compound 34],14.1 ± 1.5,51.1 ± 2.6
CC(C)N1C(=O)C(=C2Oc3ccccc3C2=NO)c2cc(Cl)ccc21 [Compound 35],17.5 ± 1.8,29.2 ± 1.4
CC(C)N1C(=O)C(=C2Oc3ccccc3C2=NO)c2ccc(Cl)cc21 [Compound 36],10 ± 0.6,31.5 ± 1.8
Cc1ccc2c(c1)C(=C1Oc3ccccc3C1=NO)C(=O)N2C(C)C [Compound 37],9 ± 2.1,41 ± 1.7
"O=C1C(=C2Oc3ccccc3C2=NO)c2ccccc2N1Cc1ccccc1 [Compound 38, N1-benzyl-1′-oxo-indirubin-3′-oxime]",9.05 ± 1.4,32.2 ± 1.5
O=C1C(=C2Oc3ccccc3C2=NO)c2cc(F)ccc2N1Cc1ccccc1 [Compound 39],33 ± 2.9,19 ± 2.1
O=C1C(=C2Oc3ccccc3C2=NO)c2cc(Cl)ccc2N1Cc1ccccc1 [Compound 40],14 ± 1.2,> 100
Cc1ccc2c(c1)C(=C1Oc3ccccc3C1=NO)C(=O)N2Cc1ccccc1 [Compound 41],8.3 ± 1.7,45 ± 3
CCN1C(=O)C(=C2Oc3ccccc3C2=NO)c2cc(F)ccc21 [Compound 42],15 ± 1.2,28 ± 2.5
CCN1C(=O)C(=C2Oc3ccc(Cl)cc3C2=NO)c2ccccc21 [Compound 43],14 ± 1.7,42 ± 4.2
CCN1C(=O)C(=C2Oc3ccc(Cl)cc3C2=NO)c2cccc(F)c21 [Compound 44],> 100,> 100

Structure (SMILES),IC50 [1] [µM],IC50 [2] [µM]
CCN1C(=O)C(=C2Oc3ccc(Cl)cc3C2=NO)c2cc(Cl)ccc21 [Compound 45],4.8 ± 0.6,3.6 ± 0.2
CCN1C(=O)C(=C2Oc3ccc(Cl)cc3C2=NO)c2ccc(Cl)cc21 [Compound 46],3.4 ± 0.7,3.8 ± 0.5
CC(C)N1C(=O)C(=C2Oc3ccccc3C2=NO)c2cc(Cl)ccc21 [Compound 47],1.7 ± 0.8,1.6 ± 0.8
CC(C)N1C(=O)C(=C2Oc3ccc(Cl)cc3C2=NO)c2ccc(Cl)cc21 [Compound 48],1.9 ± 0.4,2.6 ± 0.4
CON=C1C(=C2C(=O)Nc3ccccc32)Oc2ccccc21 [Compound 49],9.5 ± 0.6,4.8 ± 0.7
CON=C1C(=C2C(=O)Nc3c(F)cccc32)Oc2ccccc21 [Compound 50],7.7 ± 1.2,2.9 ± 0.5
CCN1C(=O)C(=C2Oc3ccccc3C2=NOC)c2ccccc21 [Compound 51],3.9 ± 0.5,1.7 ± 0.6
CCN1C(=O)C(=C2Oc3ccccc3C2=NOC)c2cccc(F)c21 [Compound 52],2.8 ± 0.4,2.1 ± 0.2
CON=C1C(=C2C(=O)N(C3OC(CO)C(O)C(O)C3O)c3ccc(Cl)cc32)Oc2ccccc21 (stereo not drawn) [Compound 53],2.1 ± 0.5,16 ± 1.5
CON=C1C(=C2C(=O)N(C(C)C)c3cc(Cl)ccc32)Oc2ccccc21 [Compound 54],12 ± 1.4,1.8 ± 1.9
CON=C1C(=C2C(=O)N(C(C)C)c3ccc(C)cc32)Oc2ccccc21 [Compound 55],12 ± 1.9,4 ± 2.4
"CON=C1C(=C2C(=O)N(Cc3ccccc3)c3ccccc32)Oc2ccccc21 [Compound 56, N1-benzyl-1′-oxo-indirubin-3′-oxime ether]",7.1 ± 1.1,2.7 ± 1.2
CON=C1C(=C2C(=O)N(Cc3ccccc3)c3ccc(F)cc32)Oc2ccccc21 [Compound 57],6.9 ± 0.8,3.1 ± 0.8
CON=C1C(=C2C(=O)N(Cc3ccccc3)c3ccc(Cl)cc32)Oc2ccccc21 [Compound 58],12.1 ± 0.9,3.8 ± 1.5
CCN1C(=O)C(=C2Oc3ccccc3C2=NOC)c2cc(F)ccc21 [Compound 59],5 ± 0.9,3.7 ± 0.9
CON=C1C(=C2C(=O)N(C(C)C)c3cc(Cl)ccc32)Oc2ccc(Cl)cc21 [Compound 60],29 ± 1.8,5.4 ± 0.6
CN1C(=O)C(=C2Oc3ccccc3C2=O)c2cnccc21 [Compound 62],9.5 ± 2.1,11.5 ± 1
CCN1C(=O)C(=C2Oc3ccccc3C2=O)c2c1ccnc2C [Compound 65],18.5 ± 1.8,40 ± 3.1
CC(C)N1C(=O)C(=C2Oc3ccccc3C2=O)c2cnccc21 [Compound 66],7.4 ± 1.7,1.8 ± 0.6
Cc1nccc2c1C(=C1Oc3ccccc3C1=O)C(=O)N2C(C)C [Compound 68],14 ± 1.7,18.5 ± 1.8
CCCCN1C(=O)C(=C2Oc3ccccc3C2=O)c2cncc(F)c21 [Compound 70],4.5 ± 0.6,3.6 ± 0.4
